Results taken from patent US4321372A, “Antiulcer thiazol-2-ylcarbamoyl-carboxylic acids, esters and amides” (Pfizer Inc., priority 1980, dated 1982).
Where a name gives a salt, the structure may show the parent alone.

Experiments:
[1] = tested on: ethanol-induced rat ulcer; assay: Ethanol-induced rat ulcer assay (oral antiulcer activity); type: in vivo; conditions: for inhibition at 5 mg/kg: Rattus norvegicus, po; for inhibition at 5 mg/kg / % Inhibition (oral activity in the ethanol-induced rat ulcer assay): 5 mg./kg. orally, 15 min before absolute ethanol (1.0 ml.), male fasted rats, 8/group, lesions scored 1 hour after ethanol, based on ulcer index vs controls
Protocol: The antiulcer activity of the compounds of the present invention is evaluated by an ethanol-induced rat ulcer assay, a test reflecting clinical utility of these compounds in the treatment of peptic ulcers, particularly gastric ulcers.
The effectiveness of the products of this invention as antiulcer agents is determined in an ethanol-induced rat ulcer assay. In this test, overnight fasted male rats are orally administered either drug (5 mg./kg.) dissolved or suspended in water or dilute NaOH, or water (controls), fifteen minutes prior to an orally administered dose of absolute ethanol (1.0 ml.). One hour after the ethanol challenge the animals (8/group) are killed and the stomachs examined for the presence of lesions. After sacrifice the abdomen is opened and a locking hemostate placed at the pylorus. Six ml. of a 4% solution of formaldehyde is injected into the stomach with a gastric feeding tube and a second locking hemostate is used to seal the esophagus. The stomach is removed, opened along the greater curvature and examined for ulceration.
The scoring system used to quantitate the ethanol-induced lesions is given below.
1 Normal appearing stomach
2 Pinpoint sized lesions
3 Lesions, 2 or fewer; pin-
5 Lesions with hemorrhage
For each group of animals an ulcer index is calculated as follows:
Ulceration Index=(the sum of the scores of the group)×(the sum of the number of ulcers in the group)×(the fraction of the group having any incidence of ulceration).
The percent inhibition of ulcers is calculated as follows:
% Inhibition=100×[(ulcer index controls)-(ulcer index drug-treated)].div.(ulcer index controls).

gastric ulcers = conditions: animals, including humans; cited from earlier work
antiallergic activity = conditions: cited from earlier work

Molecule	inhibition at 5 mg/kg [1]	% Inhibition (oral activity in the ethanol-induced rat ulcer assay) [1]	further results
CCOC(=O)C(=O)Nc1nc(C)c(C)s1 [Example 16, ethyl 4,5-dimethylthiazol-2-ylcarbamoylcarboxylate]	62%		
CCOC(=O)C(=O)Nc1nc(CC)c(CC)s1 [Example 18, ethyl 4,5-diethylthiazol-2-ylcarbamoylcarboxylate]	81%		
CCOC(=O)C(=O)Nc1nc2c(s1)CCCC2 [Example 23, ethyl 4,5,6,7-tetrahydrobenzthiazol-2-ylcarbamoylcarboxylate]	51%		
CC1(C)[C@@H](OC(=O)CCC(=O)O)CC[C@]2(C)[C@H]3C(=O)C=C4[C@@H]5C[C@@](C)(C(=O)O)CC[C@]5(C)CC[C@@]4(C)[C@]3(C)CC[C@@H]12 [carbenoxolone sodium, disodium salt of the hemisuccinate of glycyrrhetinic acid]			effect on gastric ulcers (gastric ulcers): prevent formation of and to accelerate healing of gastric ulcers
CCOC(=O)C(=O)Nc1nccs1 [ethyl thiazol-2-ylcarbamoylcarboxylate]	3%	inactive	antiulcer activity (in words) ([1]; compared with compounds of the invention): lacking in the antiulcer activity; antiallergic activity, parenteral (antiallergic activity; high parenteral dose): antiallergic activity; antiallergic activity, oral (antiallergic activity; oral, even at 200 mg./kg.): no significant oral activity
ethyl 4-methylthiazol-2-ylcarbamoylcarboxylate [Example 14]		59%	
ethyl 5-methylthiazol-2-ylcarbamoylcarboxylate [Example 15]		48%	
